The values below come from patent publication US20090298834A1, “4-(AMINOMETHYL)CYCLOHEXANAMINE DERIVATIVES AS CALCIUM CHANNEL BLOCKERS” (priority 2008, published 2009).

The target in experiment [1] is T1, human α1H T-type channels (Homo sapiens, UniProt O95180).
T1 construct: expressed in transfected cells; host or cells: HEK 293
As to the kind of experiment: T-type calcium channel block, whole cell patch clamp (α1H). It is filed as cell-based. The conditions noted are these: HEK cells stably expressing human α1H; mainly non-inactivated protocol; values above 10 μM represented as 10 μM. The protocol:
(§1) T-type calcium channel blocking activity was assayed in human embryonic kidney cells, HEK 293, stably transfected with the T-type calcium channel subunits. Briefly, cells were cultured in Dulbecco's modified eagle medium (DMEM) supplemented with 10% fetal bovine serum, 200 U/ml penicillin and 0.2 mg/ml streptomycin at 37° C. with 5% CO2. At 85% confluency cells were split with 0.25% trypsin/1 mM EDTA and plated at 10% confluency on glass coverslips. At 12 hours the medium was replaced and the cells stably transfected using a standard calcium phosphate protocol and the appropriate calcium channel cDNA's. Fresh DMEM was supplied and the cells transferred to 28° C./5% CO2. Cells were incubated for 1 to 2 days prior to whole cell recording.
(§2) Standard patch-clamp techniques were employed to identify blockers of T-type currents. Briefly, previously described HEK cell lines stably expressing human α1G, α1H and α1I T-type channels were used for all the recordings (passage #: 4-20, 37° C., 5% CO2). Whole cell patch clamp experiments were performed using an Axopatch 200B amplifier (Axon Instruments, Burlingame, Calif.) linked to a personal computer equipped with pCLAMP software. Data were analyzed using Clampfit (Axon Instruments) and SigmaPlot 4.0 (Jandel Scientific). To obtain T-type currents, plastic dishes containing semi-confluent cells were positioned on the stage of a ZEISS AXIOVERT S100 microscope after replacing the culture medium with external solution (see below). Whole-cell patches were obtained using pipettes (borosilicate glass with filament, O.D.: 1.5 mm, I.D.: 0.86 mm, 10 cm length), fabricated on a SUTTER P-97 puller with resistance values of ˜5 MΩ (see below for internal solution).
(§3) In the non-inactivating protocol, the holding potential is set at −110 mV and with a pre-pulse at −100 mV for 1 second prior to the test pulse at −40 mV for 50 ms. In the inactivation protocol, the pre-pulse is at approximately −85 mV for 1 second, which inactivates about 15% of the T-type channels.
(§4) Test compounds were dissolved in external solution, 0.1-0.01% DMSO. After 10 min rest, they were applied by gravity close to the cell using a WPI microfil tubing. The “non-inactivated” pre-pulse was used to examine the resting block of a compound. The “inactivated” protocol was employed to study voltage-dependent block. However, the initial data shown below were mainly obtained using the non-inactivated protocol only. . IC50 values are shown for various compounds of the invention in Table 4 for the drug of interest. Values are shown in μM and values above 10 μM are simply represented as 10 μM.

For experiment [2], the target named is T2, human α1G T-type channels (Homo sapiens, UniProt O43497).
T2 construct: expressed in transfected cells; host or cells: HEK 293
The experiment is described as follows: T-type calcium channel block, whole cell patch clamp (α1G). Conditions: HEK cells stably expressing human α1G; mainly non-inactivated protocol; values above 10 μM represented as 10 μM, values below 0.30 μM represented as 0.30 μM. It counts as cell-based. The protocol:
as §1, §2, §3, §4
(In general: Patch clamp records ionic current or voltage across a cell membrane.)

One may read the pIC50 as the IC50 on a negative log10 scale, so that one unit is a factor of ten.

pIC50: −log10 of the molar value.

T1 sequence (O95180 whole entry): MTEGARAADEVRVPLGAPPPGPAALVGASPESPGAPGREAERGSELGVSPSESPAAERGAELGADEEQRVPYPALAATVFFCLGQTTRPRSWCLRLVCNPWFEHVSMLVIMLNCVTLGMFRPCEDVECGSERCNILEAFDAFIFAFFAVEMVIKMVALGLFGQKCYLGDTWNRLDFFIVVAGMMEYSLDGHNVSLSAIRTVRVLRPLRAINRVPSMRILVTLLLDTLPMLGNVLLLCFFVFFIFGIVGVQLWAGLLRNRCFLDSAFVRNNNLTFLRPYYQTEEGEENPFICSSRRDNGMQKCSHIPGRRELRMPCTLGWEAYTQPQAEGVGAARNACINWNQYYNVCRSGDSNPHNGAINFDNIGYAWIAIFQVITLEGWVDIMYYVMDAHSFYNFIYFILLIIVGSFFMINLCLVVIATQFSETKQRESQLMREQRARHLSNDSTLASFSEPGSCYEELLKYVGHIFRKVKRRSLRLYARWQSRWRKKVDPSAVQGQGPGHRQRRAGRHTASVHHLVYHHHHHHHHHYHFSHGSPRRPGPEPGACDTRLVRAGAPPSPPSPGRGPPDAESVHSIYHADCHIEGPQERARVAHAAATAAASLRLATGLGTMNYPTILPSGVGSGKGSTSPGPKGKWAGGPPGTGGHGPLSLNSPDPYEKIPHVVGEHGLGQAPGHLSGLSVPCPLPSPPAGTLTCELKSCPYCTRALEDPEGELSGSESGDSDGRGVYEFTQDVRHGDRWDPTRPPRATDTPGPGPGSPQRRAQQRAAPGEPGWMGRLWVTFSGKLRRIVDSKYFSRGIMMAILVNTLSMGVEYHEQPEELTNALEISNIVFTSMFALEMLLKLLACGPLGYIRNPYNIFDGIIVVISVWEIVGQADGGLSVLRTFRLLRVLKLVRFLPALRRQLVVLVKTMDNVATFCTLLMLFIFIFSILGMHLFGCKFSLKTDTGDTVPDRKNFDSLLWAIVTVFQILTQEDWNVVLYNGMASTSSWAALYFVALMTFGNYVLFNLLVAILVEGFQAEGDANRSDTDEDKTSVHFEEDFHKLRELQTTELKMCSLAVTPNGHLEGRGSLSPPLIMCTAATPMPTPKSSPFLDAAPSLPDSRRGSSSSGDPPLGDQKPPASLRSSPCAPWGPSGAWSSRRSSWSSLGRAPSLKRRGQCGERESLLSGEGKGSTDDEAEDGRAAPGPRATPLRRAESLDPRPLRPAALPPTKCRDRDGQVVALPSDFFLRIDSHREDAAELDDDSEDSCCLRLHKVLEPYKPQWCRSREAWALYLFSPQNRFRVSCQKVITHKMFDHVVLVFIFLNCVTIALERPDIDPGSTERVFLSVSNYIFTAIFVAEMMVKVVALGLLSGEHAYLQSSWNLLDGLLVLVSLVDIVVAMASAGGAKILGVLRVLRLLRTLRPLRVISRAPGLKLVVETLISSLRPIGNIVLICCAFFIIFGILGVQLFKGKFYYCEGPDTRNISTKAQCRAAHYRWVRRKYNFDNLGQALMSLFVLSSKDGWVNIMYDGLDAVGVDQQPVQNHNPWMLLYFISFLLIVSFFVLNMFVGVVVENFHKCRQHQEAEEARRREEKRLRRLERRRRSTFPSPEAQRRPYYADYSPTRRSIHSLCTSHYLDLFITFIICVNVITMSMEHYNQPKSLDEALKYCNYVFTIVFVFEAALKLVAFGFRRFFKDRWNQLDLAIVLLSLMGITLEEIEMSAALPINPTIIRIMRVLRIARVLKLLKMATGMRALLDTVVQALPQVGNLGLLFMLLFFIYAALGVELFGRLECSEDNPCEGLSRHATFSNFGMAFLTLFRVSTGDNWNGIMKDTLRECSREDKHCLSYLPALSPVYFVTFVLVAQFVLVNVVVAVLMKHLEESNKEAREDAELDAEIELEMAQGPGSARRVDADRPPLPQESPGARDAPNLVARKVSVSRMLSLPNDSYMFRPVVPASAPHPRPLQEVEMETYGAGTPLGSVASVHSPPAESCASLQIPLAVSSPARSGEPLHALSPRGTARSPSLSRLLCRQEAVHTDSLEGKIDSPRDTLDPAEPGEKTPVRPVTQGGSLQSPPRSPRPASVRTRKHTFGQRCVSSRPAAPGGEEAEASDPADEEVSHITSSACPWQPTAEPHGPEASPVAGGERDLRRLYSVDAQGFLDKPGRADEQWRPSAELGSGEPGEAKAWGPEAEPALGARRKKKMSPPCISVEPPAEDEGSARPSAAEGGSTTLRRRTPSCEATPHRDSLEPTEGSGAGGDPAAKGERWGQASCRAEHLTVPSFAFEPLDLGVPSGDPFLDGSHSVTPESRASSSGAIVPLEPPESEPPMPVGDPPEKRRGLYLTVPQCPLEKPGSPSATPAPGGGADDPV
T2 sequence (O43497 whole entry): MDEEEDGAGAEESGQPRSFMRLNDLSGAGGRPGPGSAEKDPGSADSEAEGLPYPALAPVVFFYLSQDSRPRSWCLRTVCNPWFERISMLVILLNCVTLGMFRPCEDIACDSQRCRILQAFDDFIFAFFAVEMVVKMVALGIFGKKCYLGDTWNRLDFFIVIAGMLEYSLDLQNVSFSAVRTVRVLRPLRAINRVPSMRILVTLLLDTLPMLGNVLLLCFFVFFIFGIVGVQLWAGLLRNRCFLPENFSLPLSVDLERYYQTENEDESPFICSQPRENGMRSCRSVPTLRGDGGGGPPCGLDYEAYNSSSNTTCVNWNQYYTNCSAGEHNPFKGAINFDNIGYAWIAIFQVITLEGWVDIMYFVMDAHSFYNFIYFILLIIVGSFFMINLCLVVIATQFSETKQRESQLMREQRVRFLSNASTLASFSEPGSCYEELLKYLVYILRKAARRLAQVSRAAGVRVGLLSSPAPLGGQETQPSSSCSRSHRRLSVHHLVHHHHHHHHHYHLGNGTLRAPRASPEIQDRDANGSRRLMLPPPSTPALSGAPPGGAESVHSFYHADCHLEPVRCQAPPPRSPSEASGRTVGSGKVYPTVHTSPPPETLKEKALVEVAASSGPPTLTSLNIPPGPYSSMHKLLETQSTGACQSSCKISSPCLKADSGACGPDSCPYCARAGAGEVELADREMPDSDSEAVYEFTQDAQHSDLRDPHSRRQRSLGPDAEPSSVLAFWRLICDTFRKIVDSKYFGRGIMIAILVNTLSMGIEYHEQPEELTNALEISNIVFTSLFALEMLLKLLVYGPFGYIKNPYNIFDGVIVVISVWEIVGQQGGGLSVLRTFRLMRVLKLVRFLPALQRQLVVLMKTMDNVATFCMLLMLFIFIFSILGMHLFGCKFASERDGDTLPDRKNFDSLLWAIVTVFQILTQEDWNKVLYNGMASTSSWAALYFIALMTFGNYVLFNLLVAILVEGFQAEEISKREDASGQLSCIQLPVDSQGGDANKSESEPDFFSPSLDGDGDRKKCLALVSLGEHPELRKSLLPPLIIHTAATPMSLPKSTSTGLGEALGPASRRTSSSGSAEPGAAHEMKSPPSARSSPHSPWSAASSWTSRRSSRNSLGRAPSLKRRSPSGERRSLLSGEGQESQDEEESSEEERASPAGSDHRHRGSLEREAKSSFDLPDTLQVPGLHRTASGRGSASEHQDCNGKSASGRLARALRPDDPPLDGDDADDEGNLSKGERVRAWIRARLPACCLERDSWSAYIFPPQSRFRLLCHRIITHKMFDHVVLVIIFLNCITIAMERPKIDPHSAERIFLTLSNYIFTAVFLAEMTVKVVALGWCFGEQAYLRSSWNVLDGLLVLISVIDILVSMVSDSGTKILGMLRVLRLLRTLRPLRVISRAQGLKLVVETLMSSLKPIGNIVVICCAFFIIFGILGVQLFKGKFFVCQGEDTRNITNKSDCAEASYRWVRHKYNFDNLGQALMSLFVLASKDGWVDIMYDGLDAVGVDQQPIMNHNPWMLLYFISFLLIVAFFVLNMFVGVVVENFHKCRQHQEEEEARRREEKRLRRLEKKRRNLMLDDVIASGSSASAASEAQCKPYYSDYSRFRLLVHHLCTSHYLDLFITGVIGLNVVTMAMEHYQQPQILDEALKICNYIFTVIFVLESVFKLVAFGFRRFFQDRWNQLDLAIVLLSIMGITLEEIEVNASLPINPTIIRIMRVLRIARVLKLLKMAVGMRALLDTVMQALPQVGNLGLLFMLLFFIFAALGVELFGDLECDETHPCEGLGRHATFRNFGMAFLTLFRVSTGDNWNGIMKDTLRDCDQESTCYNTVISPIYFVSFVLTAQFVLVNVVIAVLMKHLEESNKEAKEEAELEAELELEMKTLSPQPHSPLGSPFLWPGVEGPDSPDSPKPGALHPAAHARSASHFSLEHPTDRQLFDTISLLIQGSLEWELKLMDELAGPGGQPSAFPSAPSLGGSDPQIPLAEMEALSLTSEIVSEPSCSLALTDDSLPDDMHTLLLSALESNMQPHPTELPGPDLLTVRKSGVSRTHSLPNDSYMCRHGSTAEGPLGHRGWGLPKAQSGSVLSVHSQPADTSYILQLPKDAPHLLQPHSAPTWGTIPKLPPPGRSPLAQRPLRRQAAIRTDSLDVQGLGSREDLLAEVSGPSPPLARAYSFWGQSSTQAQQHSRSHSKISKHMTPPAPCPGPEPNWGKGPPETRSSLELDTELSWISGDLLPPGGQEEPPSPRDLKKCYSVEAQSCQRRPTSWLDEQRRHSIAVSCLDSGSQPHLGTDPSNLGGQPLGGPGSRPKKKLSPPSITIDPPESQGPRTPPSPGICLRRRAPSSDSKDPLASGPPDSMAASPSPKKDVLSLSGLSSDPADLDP

`CCC(CC)NC(=O)CN[C@H]1CC[C@@H](CNC(=O)c2cc(C(F)(F)F)cc(C(F)(F)F)c2)CC1` [Compound 42, N-((cis-4-(2-oxo-2-(pentan-3-ylamino)ethylamino)cyclohexyl)methyl)-3,5-bis(trifluoromethyl)benzamide]: the pIC50 in experiment [1] was 6.92; in experiment [2] it was not below 6.52.
Taken in the same sequence, the figures for `CC1(C)CCCN1C(=O)CN[C@H]1CC[C@@H](CNC(=O)c2cc(F)cc(Cl)c2)CC1` [Compound 195, 3-chloro-N-(((1s,4s)-4-(2-(2,2-dimethylpyrrolidin-1-yl)-2-oxoethylamino)cyclohexyl)methyl)-5-fluorobenzamide] were 6.77 and 5.96.
Taken in the same sequence, the figures for `COc1ccccc1CN[C@H]1CC[C@H](CNC(=O)c2cc(C(F)(F)F)cc(C(F)(F)F)c2)CC1` [Compound 29, N-((trans-4-(2-methoxybenzylamino)cyclohexyl)methyl)-3,5-bis(trifluoromethyl)benzamide] were 6.10 and not below 6.52.
As to `O=C(NC[C@H]1CC[C@@H](NCc2ncccc2O)CC1)c1cc(F)cc(C(F)(F)F)c1` [Compound 16, 3-fluoro-N-((cis-4-((3-hydroxypyridin-2-yl)methylamino)cyclohexyl)methyl)-5-(trifluoromethyl)benzamide], the negative-log IC50 (pIC50) in experiment [1] is not above 5.00; in experiment [2], 5.35.
Taken in the same sequence, the figures for `CC(C)(O)CN[C@H]1CC[C@H](CNC(=O)c2cc(C(F)(F)F)cc(C(F)(F)F)c2)CC1` [Compound 4, N-((trans-4-(2-hydroxy-2-methylpropylamino)cyclohexyl)methyl)-3,5-bis(trifluoromethyl)benzamide] were 5.35 and 5.34.
For the molecule `CCC1CCCN1C(=O)CN[C@H]1CC[C@H](CNC(=O)c2cc(C(F)(F)F)cc(C(F)(F)F)c2)CC1` (stereo partly drawn) [Compound 68, N-((trans-4-(2-(2-ethylpyrrolidin-1-yl)-2-oxoethylamino)cyclohexyl)methyl)-3,5-bis(trifluoromethyl)benzamide], the values for the negative logarithm of the IC50 (pIC50) in experiment [1] and in experiment [2] were 6.25 and not below 6.52, respectively.
For `COC1CCC(N(C)C(=O)CN[C@H]2CC[C@H](CNC(=O)c3cc(C(F)(F)F)cc(C(F)(F)F)c3)CC2)CC1` (stereo partly drawn) [Compound 65, N-((trans-4-(2-((4-methoxycyclohexyl)(methyl)amino)-2-oxoethylamino)cyclohexyl)methyl)-3,5-bis(trifluoromethyl)benzamide], the figures for the pIC50 in experiment [1] and in experiment [2] were 5.13 and 5.10, respectively.
On to `O=C(NC[C@H]1CC[C@@H](NC(=O)[C@H]2CC[C@@H](c3ccccc3)N2)CC1)c1cc(C(F)(F)F)cc(C(F)(F)F)c1` [Compound 139, (2R,5S)-N-(cis-4-((3,5-bis(trifluoromethyl)benzamido)methyl)cyclohexyl)-5-phenylpyrrolidine-2-carboxamide], for which the pIC50 in experiment [1] is 5.15; in experiment [2], 5.97.
On the same counts, the results for `COc1cc(F)cc(C(=O)NC[C@H]2CC[C@H](NCC(=O)N(C)C(C)(C)C)CC2)c1` [Compound 210, N-(((1r,4r)-4-(2-(tert-butyl(methyl)amino)-2-oxoethylamino)cyclohexyl)methyl)-3-fluoro-5-methoxybenzamide] are 5.62 and 5.25.
Taken in the same sequence, the figures for `CC(C)CNC(=O)CN[C@H]1CC[C@H](CNC(=O)c2cc(C(F)(F)F)cc(C(F)(F)F)c2)CC1` [Compound 75, N-((trans-4-(2-(isobutylamino)-2-oxoethylamino)cyclohexyl)methyl)-3,5-bis(trifluoromethyl)benzamide] were 6.37 and 6.09.
As for `CC(C)CNC(=O)CN[C@H]1CC[C@@H](CNC(=O)c2cc(C(F)(F)F)cc(C(F)(F)F)c2)CC1` [Compound 70, N-((cis-4-(2-(isobutylamino)-2-oxoethylamino)cyclohexyl)methyl)-3,5-bis(trifluoromethyl)benzamide], the figures for the pIC50 in experiment [1] and in experiment [2] were 6.68 and 6.48, respectively.
Turning to `COc1cc(F)cc(C(=O)NC[C@H]2CC[C@@H](NCC(=O)N3CCCC3(C)C)CC2)c1` [Compound 199, N-(((1s,4s)-4-(2-(2,2-dimethylpyrrolidin-1-yl)-2-oxoethylamino)cyclohexyl)methyl)-3-fluoro-5-methoxybenzamide], the pIC50 in experiment [1] was 6.46; in experiment [2], 5.42.
Taken in the same sequence, the figures for `CC(C)(C)NC(=O)CN[C@H]1CC[C@H](CNC(=O)c2cc(F)cc(Cl)c2)CC1` [Compound 201, N-(((1r,4r)-4-(2-(tert-butylamino)-2-oxoethylamino)cyclohexyl)methyl)-3-chloro-5-fluorobenzamide] were 6.24 and 5.74.
On the same counts, the results for `Cc1cccc(CN[C@H]2CC[C@@H](CNC(=O)c3cc(C(F)(F)F)cc(C(F)(F)F)c3)CC2)c1O` [Compound 9, N-((cis-4-(2-hydroxy-3-methylbenzylamino)cyclohexyl)methyl)-3,5-bis(trifluoromethyl)benzamide] are 6.15 and 6.07.
Turning to `O=C(NC[C@H]1CC[C@@H](NCc2c(O)cccc2F)CC1)c1cc(F)cc(C(F)(F)F)c1` [Compound 22, 3-fluoro-N-((cis-4-(2-fluoro-6-hydroxybenzylamino)cyclohexyl)methyl)-5-(trifluoromethyl)benzamide], the pIC50 was 5.51 in experiment [1] and 6.00 in experiment [2].
On to `COc1cccnc1CN[C@H]1CC[C@@H](CNC(=O)c2cc(F)cc(C(F)(F)F)c2)CC1` [Compound 20, 3-fluoro-N-((cis-4-((3-methoxypyridin-2-yl)methylamino)cyclohexyl)methyl)-5-(trifluoromethyl)benzamide], for which the pIC50 is 5.27 in experiment [1] and 5.48 in experiment [2].
For `COc1ccc(CN[C@H]2CC[C@@H](CNC(=O)c3cc(C(F)(F)F)cc(C(F)(F)F)c3)CC2)c(OC)c1` [Compound 14, N-((cis-4-(2,4-dimethoxybenzylamino)cyclohexyl)methyl)-3,5-bis(trifluoromethyl)benzamide], the pIC50 in experiment [1] was 6.25; in experiment [2] it was not below 6.52.
With `C#CC(CC)(CC)NC(=O)CN[C@H]1CC[C@@H](CNC(=O)c2cc(C(F)(F)F)cc(C(F)(F)F)c2)CC1` [Compound 47, N-((cis-4-(2-(3-ethylpent-1-yn-3-ylamino)-2-oxoethylamino)cyclohexyl)methyl)-3,5-bis(trifluoromethyl)benzamide], the pIC50 in experiment [1] was 8.00; in experiment [2], not below 6.52.
On to `Cc1ccc(-c2csc(NC(=O)C[C@H]3CC[C@@H](NCC(C)(C)NC(=O)OC(C)(C)C)CC3)n2)cc1` [Compound 38, tert-butyl 2-methyl-1-(cis-4-(2-oxo-2-(4-p-tolylthiazol-2-ylamino)ethyl)cyclohexylamino)propan-2-ylcarbamate], for which the negative-log IC50 (pIC50) in experiment [1] is 5.10.
Regarding `CC(C)(C)OC(=O)NCCN[C@H]1CC[C@@H](CNC(=O)c2cc(Cl)cc(C(F)(F)F)c2)CC1` [Compound 99, tert-butyl 2-(cis-4-((3-chloro-5-(trifluoromethyl)benzamido)methyl)cyclohexylamino)ethylcarbamate], the negative-log IC50 (pIC50) in experiment [1] is 6.36.
Still for that read-out and setting: the value for `COc1ccc(CN[C@H]2CC[C@@H](CC(=O)Nc3nc(-c4ccc(C)cc4)cs3)CC2)c(O)c1` [Compound 36, 2-(cis-4-(2-hydroxy-4-methoxybenzylamino)cyclohexyl)-N-(4-p-tolylthiazol-2-yl)acetamide] was not above 5.00.
